In US10947252B2, “Inhibitors of KEAP1-Nrf2 protein-protein interaction” (Janssen Pharmaceutica NV, priority 2018, dated 2021):

Key:
[1] = test system: Glo-Response ARE-luc2P HEK293 cell line; assay: ARE luciferase reporter cell-based assay; details: Homo sapiens, HEK293, 24 h, average of results obtained;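 note: luciferase signal tracks Nrf2 activation of the ARE once compounds disrupt KEAP1-Nrf2 binding, read with One-Glo reagent, DMSO serving as low control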
[2] = target: Kelch domain of human KEAP1 (321-624 aa) (Homo sapiens (Human), UniProt Q14145); assay: KEAP1 KELCH ThermoFluor binding assay; details: KEAP Kelch […], 1,8-ANS, pH 7.0, average of results obtained, read-out: Tf Kd;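 note: Ligand-induced melting temperature shift of E. coli-expressed KEAP1 Kelch protein, Kd estimated from concentration-response curves of ΔTm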
Sequence of Kelch domain of human KEAP1 (321-624 aa) (Q14145 321-624): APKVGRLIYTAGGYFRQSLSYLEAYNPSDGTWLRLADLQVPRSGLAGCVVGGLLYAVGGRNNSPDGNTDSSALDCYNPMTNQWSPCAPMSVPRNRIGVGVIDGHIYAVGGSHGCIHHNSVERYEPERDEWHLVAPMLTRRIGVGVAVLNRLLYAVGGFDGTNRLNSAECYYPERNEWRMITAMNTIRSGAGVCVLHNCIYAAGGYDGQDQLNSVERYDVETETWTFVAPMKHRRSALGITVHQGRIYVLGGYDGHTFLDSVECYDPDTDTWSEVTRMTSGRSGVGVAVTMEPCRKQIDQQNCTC

Row | Kd [2] [nM] | Structure (SMILES) | EC50 [1] [nM]
1 | 0.042 | Cc1ccc(C(CC(=O)O)c2cc(OC(F)F)c3c(c2)nnn3C)cc1CN1C[C@H]2CCCCN2c2ncccc2S1(=O)=O (stereo in doubt) [Example 1, 3-(7-(Difluoromethoxy)-1-methyl-1H-benzo[d][1,2,3]triazol-5-yl)-3-(3-(((*R)-5,5-dioxido-7,7a,8,9,10,11-hexahydro-6H-dipyrido[2,1-d:2′,3′-f][1,2,5]thiadiazepin-6-yl)methyl)-4-methylphenyl)propanoic acid] | 35
2 | 0.278 | Cc1ccc(C(CC(=O)O)c2ccc3c(nnn3C3CC3)c2C)cc1CN1C[C@@H]2COCCN2c2ncccc2S1(=O)=O (stereo in doubt) [Example 23, 3-(1-Cyclopropyl-4-methyl-1H-benzo[d][1,2,3]triazol-5-yl)-3-(3-(((*R)-5,5-dioxido-7a,8,10,11-tetrahydro-[1,4]oxazino[3,4-d]pyrido[2,3-f][1,2,5]thiadiazepin-6(7H)-yl)methyl)-4-methylphenyl)propanoic Acid] | 8.3
3 | 1 | Cc1ccc([C@H](CC(=O)O)c2ccc3c(nnn3CC3CC3)c2C(F)F)cc1CN1CC2CCCN2c2ncccc2S1(=O)=O (stereo in doubt) [Example 66, (*S)-3-(1-(Cyclopropylmethyl)-4-(difluoromethyl-1H-benzo[d][1,2,3]triazol-5-yl)-3-(3-((R-5,5-dioxido-7a,8,9,10-tetrahydropyridi[2,3-f]pyrrolo[2,1-d][1,2,5]thiadiazepin-6(7H)-yl)methyl)-4-methylphenyl)propanoic Acid] | 260
4 | 1.4 | Cc1ccc([C@@H](CC(=O)O)c2ccc3c(nnn3CC3CC3)c2C(F)F)cc1CN1CC2CCCN2c2ncccc2S1(=O)=O (stereo in doubt) [Example 68, (*R)-3-(1-(Cyclopropylmethyl)-4-(difluoromethyl-1H-benzo[d][1,2,3]triazol-5-yl)-3-(3-((R-5,5-dioxido-7a,8,9,10-tetrahydropyridi[2,3-f]pyrrolo[2,1-d][1,2,5]thiadiazepin-6(7H)-yl)methyl)-4-methylphenyl)propanoic Acid] | 250
5 | 8 | Cc1ccc(C(CC(=O)O)c2ccc3c(nnn3CC3CC3)c2C)cc1CN1C[C@@]2(C)CCCN2c2ncccc2S1(=O)=O (stereo in doubt) [Example 80, 3-(1-(Cyclopropylmethyl)-4-methyl-1H-benzo[d][1,2,3]triazol-5-yl)-3-(4-methyl-3-(((*R)-7a-methyl-5,5-dioxido-7a,8,9,10-tetrahydropyrido[2,3-f]pyrrolo[2,1-d][1,2,5]thiadiazepin-6(7H)-yl)methyl)phenyl)propanoic Acid] | 306
6 | < 1 | Cc1ccc([C@H](c2ccn3c(C(F)(F)F)nnc3c2C)C(C)(C)C(=O)O)cc1CN1CC2(CCOCC2)Oc2nc(NC3CC(O)C3)c(C)cc2S1(=O)=O (stereo in doubt) [Example 125, (*R)-3-(3-((7′-(((1s,3S)-3-Hydroxycyclobutyl)amino)-8′-methyl-1′,1′-dioxido-2,3,5,6-tetrahydrospiro[pyran-4,4′-pyrido[2,3-b][1,4,5]oxathiazepin]-2′(3′H)-yl)methyl)-4-methylphenyl)-2,2-dimethyl-3-(8-methyl-3-(trifluoromethyl)-[1,2,4]triazolo[4,3-a]pyridine-7-yl)propanoic Acid] | 140
7 | < 1 | Cc1ccc(C(CC(=O)O)c2ccn3c(C(F)(F)F)nnc3c2C)cc1CN1C[C@H]2CCCCN2c2ncccc2S1(=O)=O (stereo in doubt) [Example 271, 3-(3-(((*R)-5,5-Dioxido-7,7a,8,9,10,11-hexahydro-6H-dipyrido[2,1-d:2′,3′-f][1,2,5]thiadiazepin-6-yl)methyl)-4-methylphenyl)-3-(8-methyl-3-(trifluoromethyl)-[1,2,4]triazolo[4,3-a]pyridin-7-yl)propanoic Acid] | 22.9
8 | < 1 | Cc1ccc(C(CC(=O)O)c2ccn3c(C(F)(F)F)nnc3c2C)cc1CN1C[C@@H]2CCCCN2c2ncccc2S1(=O)=O (stereo in doubt) [Example 289, 3-(3-(((*S)-5,5-Dioxido-7,7a,8,9,10,11-hexahydro-6H-dipyrido[2,1-d:2′,3′-f][1,2,5]thiadiazepin-6-yl)methyl)-4-methylphenyl)-3-(8-methyl-3-(trifluoromethyl)-[1,2,4]triazolo[4,3-a]pyridin-7-yl)propanoic Acid] | 19.3
9 | < 1 | CCn1nnc2c(C)c(C(CC(=O)O)c3ccc(C)c(CN4C[C@@H]5CCCCN5c5ncccc5S4(=O)=O)n3)ccc21 (stereo in doubt) [Example 301, 3-(6-(((*S)-5,5-Dioxido-7,7a,8,9,10,11-hexahydro-6H-dipyrido[2,1-d:2′,3′-][1,2,5]thiadiazepin-6-yl)methyl)-5-methylpyridin-2-yl)-3-(1-ethyl-4-methyl-1H-benzo[d][1,2,3]triazol-5-yl)propanoic Acid] | 4.7
10 | < 1 | CCn1nnc2c(C)c(C(CC(=O)O)c3ccc(C)c(CN4C[C@H]5CCCCN5c5ncccc5S4(=O)=O)n3)ccc21 (stereo in doubt) [Example 304, 3-(6-(((*R)-5,5-Dioxido-7,7a,8,9,10,11-hexahydro-6H-dipyrido[2,1-d:2′,3′-][1,2,5]thiadiazepin-6-yl)methyl)-5-methylpyridin-2-yl)-3-(1-ethyl-4-methyl-1H-benzo[d][1,2,3]triazol-5-yl)propanoic Acid] | 2.9
11 | < 1 | Cc1ccc([C@H](CC(=O)O)c2ccn3c(C(F)(F)F)nnc3c2C)cc1CN1CC2CCCCN2c2ncc(C#N)cc2S1(=O)=O (stereo in doubt) [Example 312, (*S)-3-(3-((3-Cyano-5,5-dioxido-7,7a,8,9,10,11-hexahydro-6H-dipyrido[2,1-d:2′,3′-f][1,2,5]thiadiazepin-6-yl)methyl)-4-methylphenyl)-3-(8-methyl-3-(trifluoromethyl)-[1,2,4]triazolo[4,3-a]pyridin-7-yl)propanoic Acid] | 13.1
12 | < 1 | Cc1ccc([C@H](c2ccn3c(C(F)(F)F)nnc3c2C)C(C)(C)C(=O)O)cc1CN1CC2(CCOCC2)Oc2nc(NC(C)CN3CCCCC3)c(C)cc2S1(=O)=O (stereo in doubt) [Example 376, 3-(*R)-2,2-Dimethyl-3-(4-methyl-3-((8′-methyl-1′,1′-dioxido-7′-((1-piperidin-1-yl)propan-2-yl)amino)-2,3,5,6-tetrahydrospiro[pyran-4,4′-pyrido[2,3-b][1,4,5]oxathiazepin]-2′(3′H)-yl)methyl)phenyl)-3-(8-methyl-3-(trifluoromethyl)-[1,2,4]triazolo[4,3-a]pyridine-7-yl)propanoic Acid] | 57.3
13 | < 1 | Cc1ccc(C(CC(=O)O)c2cc(OC3CC3)c3c(c2)nnn3C)cc1CN1C[C@H]2CCCCN2c2ncccc2S1(=O)=O (stereo in doubt) [Example 403, 3-(7-Cyclopropoxy-1-methyl-1H-benzo[d][1,2,3]triazol-5-yl)-3-(3-(((*R)-5,5-dioxido-7,7a,8,9,10,11-hexahydro-6H-dipyrido[2,1-d:2′,3′-f][1,2,5]thiadiazepin-6-yl)methyl)-4-methylphenyl)propanoic Acid] | 20.8
14 | < 1 | Cc1cc2cc(C(CC(=O)O)c3ccc(C)c(CN4C[C@H]5CCCCN5c5ncccc5S4(=O)=O)c3)n(C)c2nn1 (stereo in doubt) [Example 443, 3-(3,7-Dimethyl-7H-pyrrolo[2,3-c]pyridazin-6-yl)-3-(3-(((*R)-5,5-dioxido-7,7a,8,9,10,11-hexahydro-6H-dipyrido[2,1-d:2′,3′-f][1,2,5]thiadiazepin-6-yl)methyl)-4-methylphenyl)propanoic Acid] | 1100
15 | < 1 | Cc1ccc(C(CC(=O)O)c2ccn3c(C(F)F)nnc3c2C)cc1CN1C[C@@H]2CCCCN2c2ncccc2S1(=O)=O (stereo in doubt) [Example 446, 3-(3-(Difluoromethyl)-8-methyl-[1,2,4]triazolo[4,3-a]pyridin-7-yl)-3-(3-(((*S)-5,5-dioxido-7,7a,8,9,10,11-hexahydro-6H-dipyrido[2,1-d:2′,3′-f][1,2,5]thiadiazepin-6-yl)methyl)-4-methylphenyl)propanoic Acid] | 23.8
16 | 1.02 | Cc1ccc(C(CC(=O)O)c2ccn3c(C(F)F)nnc3c2C)cc1CN1C[C@@H]2COCCN2c2ncccc2S1(=O)=O (stereo in doubt) [Example 457, 3-(3-(Difluoromethyl)-8-methyl-[1,2,4]triazolo[4,3-a]pyridin-7-yl)-3-(3-(((*R)-5,5-dioxido-7a,8,10,11-tetrahydro-[1,4]oxazino[3,4-d]pyrido[2,3-f][1,2,5]thiadiazepin-6(7H)-yl)methyl)-4-methylphenyl)propanoic Acid] | 479
17 | 2.73 | Cc1ccc(C(CC(=O)O)c2ccn3c(C(F)F)nnc3c2C)cc1CN1C[C@H]2COCCN2c2ncccc2S1(=O)=O (stereo in doubt) [Example 460, 3-(3-(Difluoromethyl)-8-methyl-[1,2,4]triazolo[4,3-a]pyridin-7-yl)-3-(3-(((*S)-5,5-dioxido-7a,8,10,11-tetrahydro-[1,4]oxazino[3,4-d]pyrido[2,3-f][1,2,5]thiadiazepin-6(7H)-yl)methyl)-4-methylphenyl)propanoic Acid] | 119
18 | < 1 | Cc1ccc(C(CC(=O)O)c2ccn3c(C(F)F)nnc3c2C)cc1CN1C[C@]2(C)CCCN2c2ncccc2S1(=O)=O (stereo in doubt) [Example 475, 3-(3-(Difluoromethyl)-8-methyl-[1,2,4]triazolo[4,3-a]pyridin-7-yl)-3-(4-methyl-3-(((*S)-7a-methyl-5,5-dioxido-7a,8,9,10-tetrahydropyrido[2,3-f]pyrrolo[2,1-d][1,2,5]thiadiazepin-6(7H)-yl)methyl)phenyl)propanoic Acid] | 406
